Laboratory results reported in patent US20240350485A1 (TARIS Biomedical LLC, priority 2021, published 2024).

Columns and labels:
[1] = In vitro release (IVR) of permeation prototypes in simulated urine; assay type: physicochemical; details: highest release rates at pH 5, significantly reduced at pH 8
Procedure: The drug formats evaluated included erdafitinib free base, erdafitinib free base plus HP-β-CD and erdafitinib salts, e.g. HCl salt.
The pH range for normal human urine is in the 5.5 to 7 range, but some disease states can result in higher urine pH values (pH 8). […] The base material for this tubing could be either AR-75A-B20 or AC-4075A-B20.
Drug and device constituents are described in Tables 11 and 12, respectively. In vitro release (IVR) testing was performed with both prototypes, using simulated urine at 3 different pH ranges as the release media: pH 5, 6.8, and 8 (n=3 systems tested in each media).

[2] = In vitro permeation screening of device materials; assay type: physicochemical; design: key: “O” is permeable (suitable for the stripe material); “A” is practically impermeable; “X” is impermeable (suitable for a base material, i.e., the non-stripe portion of a system body)
Procedure: A number of polymeric materials were tested to determine their suitability as a material of construction of an elastic system body for release of various erdafitinib formulations in a permeation-controlled release system. The materials included silicone, several thermoplastic polyurethane (TPUs) manufactured by Lubrizol Life Science (Bethlehem, PA).
In general, materials that are impermeable to erdafitinib, the API, are suitable for use as the base material in permeation systems. Materials that are permeable to the API are suitable for use as the stripe material in permeation systems. Platinum cured silicone, thermoplastic polyurethanes (TPUs), and ethylene vinyl acetate (EVA) materials were screened (Table 10). The test articles were filled with formulated API (powder or tablets), sealed, placed in foil pouches, and gamma irradiated (nominal 35 kGy). The systems were placed into simulated urine (pH 6.8), stored at 37° C., and sampled periodically. The amount of API in each sample was determined by high-performance liquid chromatography (HPLC) analysis.

[3] = In vitro protein binding in minipig urine; assay type: in vitro ADME
Procedure: (§1) Albuminuria/proteinuria had minimal effect on % free form in urine.
(§2) At the end of 6-hours post-dialysis incubation, drug was analyzed and the recovery was calculated against the spiked concentrations.

ERK1/2 phosphorylation = experiment: pERK/ERK in orthotopic bladder UM-UC-1 tumors by capillary immunoblotting; assay type: in vivo, nude rats
Description: The signals for pERK1/2 were divided by the total ERK1/2 signal in the same sample and the mean of the pERK1/2 values for the corresponding vehicle-treated samples was set at a relative value of 1. At each timepoint, the pERK/ERK ratio for each tumor sample was divided by the mean pERK/ERK ratio derived from the corresponding control samples. There was 1 exception, as there were no vehicle-treated samples at the 120-hour timepoint, the pERK/ERK ratios for the erdafitinib-treated samples at the 120-hour timepoint were divided by the mean of the 48-hour vehicle-treated group.

in vitro [4] = details: rat, bladder tissue
[5] = rat, in vivo
Description: (§3) Rat bladders (5 groups of rats, n=3/group) were surgically catheterized under anesthesia and the catheter was externalized, tunneled subcutaneously, and connected to a vascular access harness (VAH) in the neck. […] Plasma and bladder samples were collected at all time points.

[6] = urine
Description: On Day −7 a catheter was surgically placed in the bladder of each animal. The distal end of the catheter was anchored to a subcutaneous site and attached to a vascular access port (VAP). The port was secured and the animals were allowed to recover. Each animal was subsequently fitted with a portable infusion pump that was attached to the bladder catheter via the VAP. […] All excreted urine was collected in 24-hour intervals through Day 6 or 8. Blood samples were collected daily on study Days 1 to 8. Bladder tissue samples were collected from each animal at necropsy.

[7] = tested on: orthotopic UM-UC-1 bladder tumors; experiment: Continuous bladder perfusion, orthotopic UM-UC-1 bladder cancer model
Procedure: Perfusion studies: The bladders of the study animals were cannulated on Day 1 and the animals were allowed to recover for 3 days. On Day 5, UM-UC-1 cells (2×10^6 cells) were injected into the lateral wall of each bladder. […] Based on the in vitro results, target urine concentrations of 0.5, 1.0, and 5.0 μg/mL were used in the perfusion experiments. Body weight, daily urine production, and daily water consumption were recorded. At necropsy, a plasma sample, bladder photographs, and bladder weight measurements were recorded.
The percent reduction in relative tumor weight between the control group and the drug perfusion groups was determined as an initial measure of efficacy. Bladder tissue and tumor samples were also submitted for analysis of FGFR signaling activity by determining the phosphorylated fibroblast growth factor receptor substrate (FRS)2a levels and the pERK to ERK ratio.

[8] = In vitro release of prototype permeation systems in simulated urine (Table 5); assay type: physicochemical; details: simulated urine at various pHs
in vitro [9] = details: bladder tumor tissue
[10] = rats dosed orally, 2 and 7 hours
Procedure: Extracellular signal-regulated kinase (ERK)1/2 phosphorylation was assessed as a PD marker for FGFR kinase inhibition in tumors at various time points post administration/installation.

Stability in human urine = assay type: in vitro ADME; details: freshly collected human urine, 37° C.
Procedure: as §2

[11] = Stability in minipig urine; assay type: in vitro ADME; details: freshly collected minipig urine, 37° C.
Procedure: as §2

[12] = Solubility as a function of pH; assay type: physicochemical; details: normal urine pH range of 5.5 to 7
[13] = tested on: orthotopic RT-112 bladder tumor; experiment: Continuous bladder perfusion, RT-112 implanted into the bladder wall
Description: Perfusion studies: The experimental study design was the same as described in Example 11 (FIG. 12), except that the perfusions were continued until the time of necropsy on Day 14.

[14] = In vitro protein binding in human urine; assay type: in vitro ADME
Procedure: as §1, §2

in vitro [15] = details: minipig, bladder tissue
in vitro [16] = details: human, bladder tissue
Stability in rat urine = assay type: in vitro ADME; details: freshly collected rat urine, 37° C.
Procedure: as §2

in vivo = details: female, Sprague-Dawley, rat
Description: as §3

[17] = In vitro protein binding in rat urine; assay type: in vitro ADME
Procedure: as §1, §2

COc1cc(OC)cc(N(CCNC(C)C)c2ccc3ncc(-c4cnn(C)c4)nc3c2)c1 [Erdafitinib, N-(3,5-dimethoxyphenyl)-N′-(1-methylethyl)-N-[3-(1-methyl-1H-pyrazol-4-yl)quinoxalin-6-yl]ethane-1,2-diamine]
pH dependency of release by drug format [1]: significant pH dependency
In Vitro Permeation ([2]; material EVA (CoTran 9712)): Δ
In Vitro Permeation ([2]; material Silicone (MED-4750)): X
In Vitro Permeation ([2]; material TPU (AC-4075A)): X
In Vitro Permeation ([2]; material TPU (AR-62A)): X
In Vitro Permeation ([2]; material TPU (EG-80A)): Δ
In Vitro Permeation ([2]; material TPU (HP-60D-35)): ◯
In Vitro Permeation ([2]; material TPU (HP-93A-100)): ◯
In Vitro Permeation ([2]; material TPU (PC-3575A)): X
In Vitro Permeation ([2]; material TPU (TT-1074A)): X
Percent erdafitinib free in urine [3]: 97%
ERK1/2 phosphorylation in UM-UC-1 tumors (ERK1/2 phosphorylation; 6 mg/kg intravesical and 20 mg/kg oral doses, 2 hours post dosing): statistically significant decrease
pERK/ERK (ERK1/2 phosphorylation; 2 hours post dose, IVES, 6 mg/kg, relative to vehicle group): 0.62
pERK/ERK (ERK1/2 phosphorylation; 2 hours post dose, p.o., 20 mg/kg, relative to vehicle group): 0.52
pERK/ERK (ERK1/2 phosphorylation; 7 hours post dose, IVES, 6 mg/kg, relative to vehicle group): 0.60
pERK/ERK (ERK1/2 phosphorylation; 7 hours post dose, p.o., 20 mg/kg, relative to vehicle group): 0.61
pERK/ERK (ERK1/2 phosphorylation; 48 hours post dose, IVES, 6 mg/kg, relative to vehicle group): 0.71
pERK/ERK (ERK1/2 phosphorylation; 48 hours post dose, p.o., 20 mg/kg, relative to vehicle group): 0.76
pERK/ERK (ERK1/2 phosphorylation; 120 hours post dose, IVES, 6 mg/kg, relative to 48-hour vehicle group): 0.98
pERK/ERK (ERK1/2 phosphorylation; 120 hours post dose, p.o., 20 mg/kg, relative to 48-hour vehicle group): 1.22
fraction unbound (in vitro [4]): 0.33
C96 h [5]: BQL
C120 h [5]: BQL
Daily erdafitinib recoveries, of average daily amount administered [6]: 15.7%
percentage change in body weight vs vehicle control ([7]; 0.5, 1.0, and 5.0 μg/mL treatment groups): Statistically non-significant difference
bladder weight vs vehicle control ([7]; 0.5, 1.0 and 5 μg/mL nominal urine concentrations): significant dose-related decrease
cage side observations ([7]; all treatment groups): no visible signs of abnormal behavior or clinical symptoms
Observations (release profile) ([8]; device AR-62A base with HP-60D-35 stripe): Release profile shows more pH
Observations (release profile) ([8]; device EG-80A base with HP-60D-35 stripe): Release profile shows more pH
fraction unbound (in vitro [9]): 0.4
exposure levels in s.c. tumors lower than in orthotopic tumors [10]: Roughly 2 fold
stability in urine (Stability in human urine; 6 hours): sufficiently stable
recovery at 6 h (Stability in human urine; human urine spiked at 1, 3, and 5 μg/mL): 89 to 98%
stability in urine ([11]; 6 hours): sufficiently stable
recovery at 6 h ([11]; minipig urine spiked at 1, 3, and 5 μg/mL): 92 to 93%
solubility [12]: significant pH-dependent solubility
bladder weight vs vehicle control ([13]; 1.0 μg/mL perfusate concentration): significant bladder weight reduction
bladder weight decrease vs vehicle control ([13]; 0.25 and 0.5 μg/mL dose groups): not statistically significant
percentage change in body weight vs vehicle control ([13]; 0.5, 1.0, and 5.0 μg/mL treatment groups, except Group 4 on Day 11): Statistically non-significant difference
body weight loss, maximum mean values ([13]; erdafitinib-treated group, Day 11): up to −3%
Percent erdafitinib free in urine [14]: 95%
fraction unbound (in vitro [15]): 0.79
fraction unbound (in vitro [16]): 0.39
stability in urine (Stability in rat urine; 6 hours): sufficiently stable
recovery at 6 h (Stability in rat urine; rat urine spiked at 1, 3, and 5 μg/mL): 90 to 95%
concentration at 96 h (in vivo; C96 h): 56.9 ng/mL
concentration at 120 h (in vivo; C120 h): 10.7 ng/mL
Percent erdafitinib free in urine [17]: 84%
